Assay results as given in patent publication US7853319B2, “Method and system for detecting electrophysiological changes in pre-cancerous and cancerous tissue and epithelium” (Epi-Sci, LLC, priority 2005, dated 2010).
Where two headings read alike, the source gives them in different places.

What was measured:
[1] = tested on: apical K+ channels of human colonic epithelium (normal colon); test: Short circuit current of colonic mucosa ex vivo in Ussing chambers, normal colon (controls)
Description: (§1) The potassium permeability of the apical membrane of human colonic mucosa (P^Ka) was determined in surgical specimens of controls and grossly normal-appearing mucosa obtained 10-30 cm proximal to colorectal adenocarcinomas. The mucosa was mounted in Ussing chambers and the basolateral membrane resistance and voltage were nullified by elevating the K^+ in the serosal bathing solution. The apical sodium (Na^+) conductance was blocked with 0.1 mM amiloride. This protocol reduces the equivalent circuit model of the epithelium to an apical membrane conductance and electromotive force in parallel with the paracellular pathway as has been verified by microelectrode studies. […] In cancer-bearing colon the reduction in Isc is to −65 μA/cm^2. The serosal bath was remained constant at 125 mM [K].
(§2) Because the voltage across the apical membrane is zero under these conditions and the paracellular pathway is nonselective, the P^Ka (apical potassium permeability) can be calculated using the Fick equation i.e., Isc=F·P^Ka·Δ[K] where F is the Faraday constant and Δ[K] is the concentration difference for K^+ across the epithelium. […] P^Ka could also be calculated for the change in Isc when the K^+ channels were blocked with TEA, assuming complete block.

[2] = tested on: apical K+ channels of premalignant human mucosa (distal colon); test: Short circuit current of colonic mucosa ex vivo in Ussing chambers, premalignant mucosa; details: assuming complete block
Description: as §1, §2

breast tissue = test: Electrophysiological response of breast tissue after sublingual 17-β-estradiol; format: in vivo, human; details: sublingual administration, 4 mg
Description: In one method of the present invention, estradiol is introduced directly into the duct or systemically following sublingual administration of 17-β-estradiol (4 mg). This agent produces a rapid response, which peaks at approximately 20 minutes. The electrophysiological response depends, in part, on the stage of the patient's menstrual cycle, as well as the condition of the breast tissue. Specifically, in normal breast tissue, a rise in TEP will occur during the follicular (or early) phase. In pre-cancerous or cancerous tissue, this response is abrogated.

[3] = tested on: benign breast epithelial cells; test: Cell membrane potential (ψ) with potentiometric fluorescent probe, benign cells; format: cell-based, human; details: estradiol added to the culture media; approximately −50 mV in its absence
Description: (§3) Measurements were made using a potentiometric fluorescent probe, and ratiometric measurements, which are calibrated using valinomycin and [K^+]-gradients. ψs were measured in the presence (closed circles) and absence (open circles) of estradiol (the active metabolite of estrogen). Each symbol is the mean measurement. The upper error bar is the standard error of the mean, and the lower error bar is the 95% confidence level for the observations. The addition of estrogen to cultured breast epithelial cells results in an instantaneous increase in ψ (data not shown) as well as the transepithelial potential see FIG. 8. Transepithelial potential (VT) of an epithelium is the sum of the apical (luminal) cell membrane potential (VA) and the basolateral (abluminal) cell membrane potential (VBL). Therefore VT=VA+VBL (changes in VA and/or VBL will therefore alter VT or transepithelial potential). […] Malignant and transformed cells have a ψ of between −31 and −35 mV in the absence of estradiol and […] when estradiol is present in the culture medium.

[4] = tested on: benign human breast epithelial cells; test: Transepithelial potential of monolayers in modified Ussing chambers, benign epithelia; format: cell-based; details: then remains persistently elevated
Description: (§4) It should be noted that the instantaneous response, illustrated in FIG. 8, is greater in malignant epithelia, whereas the chronic or sustained exposure to estradiol results in a lower increase in TEP (transepithelial electropotential) in malignant cells. Concurrent measurement of surface electropotential and impedance allow the more accurate diagnosis of cancer. […] The cells were grown as monolayers on Millipore filters and grew to confluence in 7 to 10 days. The epithelia were then mounted in modified Ussing chambers and the TEP was measured using a voltage clamp. Increasing doses of estradiol between 0 and 0.8 μM were added (x-axis). The transepithelial potential was measured after each addition and the TEP was measured (y-axis). The different dose response is apparent for benign and malignant epithelia. Malignant epithelia have a lower TEP but undergo an instantaneous increase in TEP of approximately 9 mV (becomes more electronegative and reaches a level of <−6 mV) after exposure to only 0.1 μM estradiol and then depolarize to approximately −2 mV with increasing doses of estradiol up to about 0.5 μM.

[5] = tested on: malignant human breast epithelial cells; test: Transepithelial potential of monolayers in modified Ussing chambers, malignant epithelia; format: cell-based
Description: as §4

[6] = tested on: Malignant and transformed cells (human breast epithelial cells); test: Cell membrane potential (ψ) with potentiometric fluorescent probe, malignant and transformed cells; format: cell-based; details: estradiol present in the culture medium; −31 to −35 mV in its absence
Description: as §3

[7] = tested on: histologically "normal" colonic epithelium; details: cited from earlier work
distal colon = details: administered over the same period (four weeks) as carcinogen; cited from earlier work
breast epithelium = details: 20 μM luminal amiloride, cited from earlier work
[8] = after exposure to 0.1 μM estradiol

Compound: CC[N+](CC)(CC)CC [TEA]
- effect on short circuit current (Isc) ([1]; 30 mM mucosal TEA, 0.1 mM amiloride, elevated serosal K+, normal colon): abrupt increase in Isc
- apical K+ permeability (P^Ka) calculated from change in Isc on TEA block ([1]; controls, assuming complete block): 6.4 ×10⁻⁶ cm/s
- apical K+ permeability (P^Ka) calculated from change in Isc on TEA block [2]: 3.8 ×10⁻⁶ cm/s

Compound: C[C@]12CC[C@@H]3c4ccc(O)cc4CC[C@H]3[C@@H]1CC[C@@H]2O [estradiol, 17-β-estradiol]
- time to peak of electrophysiological response (breast tissue): approximately 20 minutes
- cell membrane potential (ψ) [3]: ~−70 mV
- estradiol dose at which TEP response peaks [4]: ~0.3 µM
- TEP level reached [5, 8]: < −6 mV
- instantaneous increase in TEP [5, 8]: approximately 9 mV
- TEP after depolarization with increasing doses ([5]; increasing doses of estradiol up to about 0.5 μM): approximately −2 mV
- cell membrane potential (ψ) [6]: approximately 50 mV

Compound: CNNC [DMH, 1,2 dimethylhydrazine]
- VA (apical membrane voltage) ([7]; after 6 weeks of DMH treatment, from −74.9 mV): −61.4 mV
- VA (apical membrane voltage) ([7]; by 20 weeks of DMH treatment): −34 mV

Compound: O=c1[nH]cc(F)c(=O)[nH]1 [5-fluorouracil]
- effect on transepithelial potential (VT) (distal colon): did not cause a reduction in VT

Compound: N=C(N)NC(=O)c1nc(Cl)c(N)nc1N [amiloride]
- depolarization of the transepithelial potential (change) (breast epithelium; baseline −5.9±0.5 mV (mean±SEM)): +3.1±0.5 mV
- increase in transepithelial resistance (breast epithelium): 17%
